Measurements from PMC9821961, “Ring-Modified Histidine-Containing Cationic Short Peptides Exhibit Anticryptococcal Activity by Cellular Disruption” (Molecules, 2022).
In brackets after ≈: the same amount, converted by molar mass. Several values for one entry are separate records, joined by “and”; a condition that tells them apart may be missing. Equal values may be shown once. Read-outs that look alike come from different tables or passages of the source.

Columns and labels:
Red blood cells (RBCs) = details: for % Hemolysis HC10 / % Hemolysis HC50: red cells of human
Description: Human blood in 10% citrate phosphate dextrose was obtained from Government Hospital, Chandigarh, India. Red blood cells (RBCs) were harvested by spinning at 1000× g for 5 min followed by washing with PBS 3–5 times. The packed cell volume was obtained and utilized to make a 0.8% (v/v) suspension of RBCs in PBS. […] The plate was incubated at 37 °C for 60 min followed by centrifugation at 1000× g for 5 min at 25 °C. The supernatant (100 μL) was transferred to a fresh microtiter plate and absorbance was recorded at 414 nm (Varioskan LUX multimode microplate reader, Thermo Scientific, Waltham, MS, USA) to analyze RBC lysis. Untreated RBCs in PBS and lysed RBCs in 0.1% Triton X-100 were used as negative and positive controls, respectively [29]. Percent hemolysis was calculated using following equation [38]. (3) % Hemolysis=Absorbance of treated sample−Absorbance of negative control/Absorbance of positive control−Absorbance of negative control×100

in vitro = details: human, HeLa cells
Description: (§4) The cells (50,000 cells/well) were seeded to the wells of the plate in Dulbecco’s Modified Eagle Medium (DMEM) supplemented with 10% fetal bovine serum at 37 °C overnight and incubated for 24 h to achieve confluency. Peptides at different concentrations of 50, 25, 12.5, 6.25, 3.12, 1.56 and 0.78 μg/mL were added to the cells in separate wells and incubated at 37 °C for 18 h. A further 20 µL MTT solution (5 mg/mL stock conc. in PBS) was added and the plate was incubated for another 3–4 h. To detect the viable cells that react with MTT to make formazan crystals, 120 μL of supernatant was removed and 100 μL DMSO was added to dissolve the crystals. Untreated cells and DMSO (10%) were used as negative and positive controls, respectively [37]. The percent viability of cells was calculated using equation:(2) % Cell viability=Av. Absorbance of treated cells/Av. Absorbance of control cells×100

C. neoformans cells [1] = test: CLSM FITC-labeled peptide uptake assay; format: cell-based, Cryptococcus neoformans; details: FITC-tagged peptide, 12 h
Description: After incubation, cells were harvested by centrifugation at 2000× g for 10 min at 4 °C and suspended in PBS and mounted on a slide for visualization under a confocal microscope with excitation and emission wavelengths of 488 nm and 515 nm, respectively.

Cryptococcal cells = details: for MIC Alone: cryptococcal cells, agent alone
C. neoformans cells [2] = test: Internal cell morphology analysis by TEM (HRTEM, STEM); format: cell-based, Cryptococcus neoformans; details: at MIC, 12 h
Description: The samples were prepared in a similar manner to as mentioned in the procedure for SEM sample preparation, up until the dehydration of cells with increasing gradients of ethanol. The dehydrated samples were then embedded in resin which was prepared from an epoxy embedding medium kit (Sigma, 45359-1EA-F). Increasing gradients (10%, 20%, 30%, 50%, 70% and 90%) of resin were added to the samples followed by incubation for 1–2 h at room temperature after addition of each gradient. Undiluted resin (100%) was added to the sample and incubated for 24 h at 70 °C. Semi-thin and ultrathin sections were cut with an ultramicrotome (Ultramicotome Lecia EM UC6). The sections of samples were placed on a 3.05 mm diameter and 200 mesh copper grid and stained with uranyl acetate or lead acetate, before observation under the HRTEM (FEI Technai G2 F20, Eindhoven, The Netherlands) and analysis at 120 KV.

S. aureus = test: microbe, parasite or virus in culture; format: cell-based, Staphylococcus aureus; details: 48 h
Excerpt: (§1) Microbial strains: Microbial strains were procured from National Culture Collection of Pathogenic Fungi (NCCPF) at the Postgraduate Institute of Medical Education & Research (PGIMER), Chandigarh and Microbial Type Culture Collection and Gene bank (MTCC) at the Institute of Microbial Technology (IMTECH), Chandigarh, India. Peptides were screened against five different strains of fungi: viz. Candida albicans (NCCPF400034), Candida glabrata (MTCC 3019), Candida parapsilosis (NCCPF 440002), Candida krusei (NCCPF 440002) and Cryptococcus neoformans (NCCPF250316), and five strains of bacteria: viz. Escherichia coli (MTCC 2961), Staphylococcus aureus (MTCC 3160), Enterococcus faecalis (MTCC 439), Streptococcus pyogenes (MTCC 442) and Pseudomonas aeruginosa (MTCC 3542).
(§2) Growth media: Antifungal susceptibility testing was carried out using standard broth microdilution assays as per the Clinical and Laboratory Standards Institute (CLSI) guidelines for fungi. RPMI 1640 (Sigma), yeast extract, peptone and dextrose (YPED, Himedia) were used as the incubation broths. The cells were diluted to a cell density of 10^3 colony forming unit (CFU/mL) and incubated at 30 °C for 48 h. Furthermore, Muller Hinton (Himedia) media was utilized for bacterial strains and antibacterial activity was evaluated per CLSI guidelines for bacteria. […] Amphotericin B (Himedia, India) and rifampicin (Himedia, India) were used as standard drugs for the evaluation of activity against all the fungal and bacterial strains, respectively.
(§3) The stock solutions of peptides (2 mg/mL) were prepared in DMSO. Specific amounts of peptide from stock solution were added to a 96-well microtiter plate containing 100 μL of growth media and then serially diluted two-fold. A further 100 μL of growth media containing microbial cells were added to each well and incubated at 30–37 °C for 24–48 h. The optical density (OD) was measured at 600 nm using a BioStack Ready (BioTek Instruments, Winooski, VT, USA) microplate reader to analyze microbial growth inhibition, and IC50 and MIC values were calculated. To visualize the growth and inhibition pattern, a solution of 3-(4,5-dimethylthiazol-2-yl)-2,5-diphenyltetrazolium bromide (MTT) in water was added to the plate and incubated for 2–3 h. MTT reacts with the mitochondrial dehydrogenases, which are present only in a viable cell, to give blue colored formazan crystals. Therefore, a darker color indicates a high number of viable cells; however, non-viable cells appear pale or colorless.

C. neoformans cells [3] = test: Time kill assay; details: time-kill profile over 24 h
C. krusei = test: microbe, parasite or virus in culture; format: cell-based, Candida krusei; details: 48 h
Method in brief: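 Growth inhibition was measured by broth microdilution. MIC and IC50 were calculated from optical density at 600 nm after 48 h at 30 °C for Candida and Cryptococcus (10^3 CFU/mL, RPMI 1640 or YPED) and after 24 h at 37 °C for the Gram-positive bacteria (10^5 CFU/mL, Mueller Hinton).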

E. coli = test: microbe, parasite or virus in culture; format: cell-based, Escherichia coli; details: 48 h
Excerpt: as §1, §2, §3

[4] = tested on: C. neoformans (ATCC350) cells; test: CLSM PI uptake assay; format: cell-based, Cryptococcus neoformans; details: at MIC, 12 h, then PI
Description: After incubation, treated and untreated cells were centrifuged at 2000× g for 10 min at 4 °C and suspended in cold PBS and followed by 2–3 washings with PBS. The cells were then incubated with PI (1.49 μM) for 1 h at room temperature with constant shaking (150× g rpm), and later harvested by centrifugation and suspended in PBS. Then, the cells were examined using confocal microscopy (Olympus Fluoview™ FV1000 SPD; Olympus, Tokyo, Japan) with a wavelength of >560 nm for PI. C. neoformans cells without treatment of active peptides served as a control.

[5] = tested on: C. neoformans (ATCC350) cells; test: CLSM DAPI uptake assay; format: cell-based, Cryptococcus neoformans; details: at MIC, 12 h, then DAPI
Description: After incubation, treated and untreated cells were centrifuged at 2000× g for 10 min at 4 °C and suspended in cold PBS and followed by 2–3 washings with PBS. The cells were then incubated with DAPI (3.01 μM) for 10 min at room temperature with constant shaking, harvested by centrifugation and suspended in PBS. Then, the fungal cells were examined using confocal microscopy (Olympus Fluoview™ FV1000 SPD; Olympus, Tokyo, Japan) with excitation at 350 nm and emission at 470 nm.

Description for HeLa: as §4

Row | SMILES | Hemolytic behavior (Red blood cells (RBCs)) | % Hemolysis HC10 (Red blood cells (RBCs)) [µg/mL] | % Hemolysis HC50 (Red blood cells (RBCs)) [µg/mL] | CC50 at 18 h (in vitro) [µg/mL] | Fluorescence of cells incubated with FITC-labeled peptide (CLSM) (C. neoformans cells [1]) | Cytotoxic nature (HeLa) | MIC Alone (Cryptococcal cells) [µg/mL] | Internal morphology of treated cells (HRTEM) (C. neoformans cells [2]) | Morphology of treated cells (STEM) (C. neoformans cells [2]) | IC50 (S. aureus) [µg/mL] | MIC (S. aureus) [µg/mL] | Time after which growth/CFUs of cryptococcal cells dropped or were inhibited (C. neoformans cells [3]) [h] | IC50 (C. krusei) [µg/mL] | MIC (C. krusei) [µg/mL] | IC50 (E. coli) [µg/mL] | MIC (E. coli) [µg/mL] | PI fluorescence of treated cells (CLSM) [4] | DAPI fluorescence of treated cells (CLSM) [5] | further results
1 | COC(=O)[C@H](Cc1ncn(Cc2cc(C(C)(C)C)cc(C(C)(C)C)c2)c1I)NC(=O)[C@@H](N)Cc1c[nH]c2ccccc12 [10d, Trp-His[1-(3,5-di-tert-butylbenzyl)-5-iodo]-OMe] | non-hemolytic | 50.53 | >100 | > 100 | prominent green fluorescence | non-cytotoxic | 4.01 (≈ 5.87 µM) | complete lysis of the cell membrane | highly shrunken cells with irregular cell membranes | 17.6 (≈ 25.7 µM) | 32.0 (≈ 46.8 µM) | 12 | >35.2 | >64.0 | 17.6 (≈ 25.7 µM) | 32.0 (≈ 46.8 µM) | prominent red fluorescence | fragmented bright blue fluorescence | Fold Decrease in MIC (Cryptococcal cells; combination 10d + Amp B): 16; MIC In Combination (Cryptococcal cells; combination 10d + Amp B): 0.25 µg/mL and 0.250 µg/mL; FICI (Cryptococcal cells; combination 10d + Flu): 0.19; MIC In Combination (Cryptococcal cells; combination 10d + Flu): 0.501 µg/mL
2 | COC(=O)[C@H](Cc1ncn(Cc2ccccc2I)c1I)NC(=O)[C@@H](N)Cc1c[nH]c2ccccc12 [10o, Trp-His[1-(2-iodobenzyl)-5-iodo]-OMe] | non-hemolytic | 52.17 | >100 | > 100 | prominent green fluorescence | non-cytotoxic | 4.59 (≈ 6.58 µM) | cell membrane was completely damaged | highly deformed and shrunken | >35.2 | >64.0 | 12 | >35.2 | >64.0 | >35.2 | >64.0 | prominent red fluorescence | fragmented bright blue fluorescence | MIC In Combination (Cryptococcal cells; combination 10o + Amp B): 0.287 µg/mL; Effect (Cryptococcal cells; combination 10o + Flu): Additive; Fold Decrease in MIC (Cryptococcal cells; combination 10o + Flu): 1.5; MIC In Combination (Cryptococcal cells; combination 10o + Flu): 2.999 µg/mL
